Laboratory results taken from patent US5079257A, “Indoloquinone compounds” (priority 1986, dated 1992).
Values after ≈ are worked out from the molar mass of the structure shown. Read-outs that look alike come from different tables or passages of the source.

Legend:
lung-NSCLC tumour line = assay: Colony inhibition in vitro, continuous drug exposure (Freiburg); assay type: cell-based, human; conditions: for activity at 1 µg/mL: 1.0 μg/ml
Method: (§1) Three indoloquinones were tested at the University of Freiburg with respect to their in vitro inhibition of colony formation of the following five human tumour cell lines: lung-NSCLC, breast, renal and two colon lines.

L1210 cells = assay: Lowest active dose (L1210; bioliquid assay); assay type: cell-based; conditions: Mus musculus
Description: The indoloquinones II (formula II) have been tested in respect of their cytotoxic activity against L1210 cells and R-1 cells (Rhabdomyosarcoma Cells) in a bioliquid assay at the department of oncology of the Free University of Amsterdam (Table I). In addition to this seven compounds (E.O. 1, E.O. 2, E.O. 4, E.O. 7, E.O. 9, E.O. 16 and E.O. 17) have been tested on L1210 activity in a clonogenic assay at TNO, Rijswijk. Further, the lowest active doses of the compounds E.O. 1, E.O. 2, E.O. 4 and E.O. 9 have been determined at TNO Rijswijk, according to the method described by Lamberts et al. [Oncology, 40, 301 (1983)]. (Table II). Eight indoloquinones (E.O. 1, E.O. 2, E.O. 4, E.O. 4A, E.O. 8, E.O. 9, E.O. 33 and E.O. 35) have been tested in a panel of five human tumour lines (TNO Rijswijk; Table III). From the latter group three indoloquinones (E.O. 1, E.O. 4 and E.O. 9) have been selected for a cytotoxicity study, involving five slowly growing human tumour lines (University of Freiburg; Table IV).
The lowest active doses for the compounds E.O. 1, E.O. 2, E.O. 4 and E.O. 9 were determined according to the method described by Lamberts et al. [Oncology, 40, 301 (1983)]. In this method, L1210 cells were grown in a series of wells in a culture medium and in the presence of the compound to be tested, as in the determination of L1210 activity in a bioliquid assay reported above, but the compound was present in respective wells in a different concentration, the concentrations extending over an appropriate range. After a suitable incubation period, the lowest active dose for the compound in question was determined by comparing the diameter of each of the precipitation spots with that of a control containing only the culture and the cell suspension, a smaller diameter indicating growth inhibition (Table II).

P 388 tumour cells = assay: In vivo P388 experiments (Brussels); parameters: species or system mice; conditions: for MAX T/C: days 1 to 5
Method: These experiments were carried out at the Institute Jules Bordet, Brussels, on CDF, female mice. The mice were inoculated intraperitoneally (IP) with 1×10^6 P 388 tumour cells. After 24 hours, the compounds were administrated as suspensions in "Tween-80" or using saline as vehicle. Six mice were used at each dose of the compound, given on days 1 to 5 and eighteen control mice were injected with saline.

WiDr cells; colon tumour = assay: In vitro panel of human tumour lines (TNO): WiDr; assay type: cell-based; conditions: about 72 hours; further: key: -: no inhibition of cell growth; +: total cell-kill
How it was run: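 Cells in Dulbecco's medium with 10% foetal calf serum were seeded 48 h, then exposed continuously to increasing compound concentrations (final ethanol <1%) for about 72 h at 37° in 10% CO2. Crystal violet staining after fixation; inhibiting concentration estimated qualitatively.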

IgR37 cells melanoma = assay: In vitro panel of human tumour lines (TNO): IgR-37; assay type: cell-based; conditions: about 72 hours; further: key: -: no inhibition of cell growth; +: total cell-kill
How it was run: (§2)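 Cells (5×10^4/ml, Dulbecco's medium + 10% FCS) grafted 48 h, then continuously exposed to compound (Hanks'/ethanol, final ethanol <1%) for about 72 h at 37°C, 10% CO2. Crystal violet fixation/staining; inhibiting concentration estimated qualitatively over increasing doses.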

[1] = test system: T 24 cells; bladder carcinoma; assay: In vitro panel of human tumour lines (TNO): T 24; assay type: cell-based; conditions: about 72 hours; further: key: -: no inhibition of cell growth; +: total cell-kill
How it was run: as §2

[2] = test system: Mammary (breast) tumour line; assay: Colony inhibition in vitro, continuous drug exposure (Freiburg); assay type: cell-based; conditions: Homo sapiens, read-out: colony formation treated/control (T/C), Mammary; for activity at 1 µg/mL: 1.0 μg/ml
Method: as §1

[3] = test system: R-1 cells (Rhabdomyosarcoma Cells); assay: R-1 activity (bioliquid assay), cytotoxicity; assay type: cell-based; conditions: Rhabdomyosarcoma cell
How it was run: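 Rhabdomyosarcoma R-1 cells (~10^6 per dish) in Dulbecco's medium with 10% FCS were exposed to drug solution, which was then replaced by fresh medium. Cells were trypsinized after 48 hours and counted electronically.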

L1210 = assay: In vivo L1210 experiments (TNO Rijswijk); parameters: species or system mice
Method: The in vivo L1210 experiments were carried out in male Balb/c X DBA.2 Fl hybrid mice at TNO, Rijswijk.
In these experiments also, the drugs were administered IP as suspensions in carboxymethyl cellulose […] as a single dose at the first day.

[4] = Homo sapiens, 0.01 μg/ml, read-out: colony formation treated/control (T/C), Lung
[5] = Homo sapiens, 0.1 μg/ml, read-out: colony formation treated/control (T/C), Lung
[6] = Homo sapiens, read-out: colony formation treated/control (T/C), Lung
[7] = L1210, bioliquid assay, duplicate experiment, read-out: LAD 2 (lowest active dose)
[8] = L1210, bioliquid assay, read-out: LAD 1 (lowest active dose)
[9] = Table I, bioliquid assay, read-out: ID-50 R-1

SMILES | activity at 0.01 µg/mL (lung-NSCLC tumour line; [4]) | activity at 0.1 µg/mL (lung-NSCLC tumour line; [5]) | activity at 1 µg/mL (lung-NSCLC tumour line; [6]) | minimal effective concentration (L1210 cells; [7]) | minimal effective concentration (L1210 cells; [8]) | in vitro activity score, WiDr (WiDr cells; colon tumour; 0.01 μg/ml) | in vitro activity score, WiDr (WiDr cells; colon tumour; 0.1 μg/ml) | in vitro activity score, WiDr (WiDr cells; colon tumour; 1.0 μg/ml) | in vitro activity score, WiDr (WiDr cells; colon tumour; 10 μg/ml) | in vitro activity score, IgR-37 (IgR37 cells melanoma; 0.01 μg/ml) | in vitro activity score, IgR-37 (IgR37 cells melanoma; 0.1 μg/ml) | in vitro activity score, IgR-37 (IgR37 cells melanoma; 10 μg/ml) | in vitro activity score, T 24 ([1]; 0.01 μg/ml) | in vitro activity score, T 24 ([1]; 0.1 μg/ml) | activity at 0.01 µg/mL ([2]; 0.01 μg/ml) | activity at 0.1 µg/mL ([2]; 0.1 μg/ml) | IC50 [3, 9] | in vitro activity score, IgR-37 (IgR37 cells melanoma; 1.0 μg/ml) | in vitro activity score, T 24 ([1]; 1.0 μg/ml) | in vitro activity score, T 24 ([1]; 10 μg/ml) | also measured
COC1=CC(=O)c2c(c(COC(C)=O)c(/C=C/COC(C)=O)n2C)C1=O [E.O. 1, 3-Acetoxymethyl-5-methoxy-1-methyl-2-[1H-indole-4,7-dione]prop-β-en-α-yl acetate] | 48% | 4% | 0% | 1.02 to 2.05 µg/mL | 1.02 to 2.05 µg/mL | - | - | - | + | - | - | + | - | - | 99% | 0% | 2.3 µg/mL |  |  |  | MAX T/C (P 388 tumour cells; 75 mg/kg): 105%; activity at 1 µg/mL [2]: 0%; IC50 ([3]; Table VI, read-out: ID-50 R-1): 0.3 µg/mL
COC(=O)OC/C=C/c1c(COC(=O)OC)c2c(n1C)C(=O)C=C(OC)C2=O [E.O. 2, Methyl 5-methoxy-3-methoxycarbonyloxymethyl-1-methyl-2-[1H-indole-4,7 dione]prop-β-en-α-yl carbonate] |  |  |  | 1.02 to 2.05 µg/mL | 1.02 to 2.05 µg/mL | - | - | - | + | - | - | + | - | - |  |  | 0.4 µg/mL (≈ 1.02 µM) | - | - | + | % T/C (L1210; 80 mg/kg IP single dose): tox.; response vs control in vivo at 30 mg/kg (L1210; Mus musculus, L1210, 30 mg/kg IP single dose, read-out: % T/C): 100%; response vs control in vivo at 40 mg/kg (L1210; Mus musculus, L1210, 40 mg/kg IP single dose, read-out: % T/C): 113%; response vs control in vivo at 60 mg/kg (L1210; Mus musculus, L1210, 60 mg/kg IP single dose, read-out: % T/C): 100%; MAX T/C (P 388 tumour cells; 10 mg/kg): 120%
CC(=O)OC/C=C/c1c(COC(C)=O)c2c(n1C)C(=O)C=C(N1CC1)C2=O [E.O. 4, 3-Acetoxymethyl-5-aziridino-1-methyl-2-[1H-indole-4,7-dione]prop-β-en-α-yl acetate] |  |  |  |  |  | - | - |  | + | - | - | + | - | - |  |  |  | + | + | + | activity against the lung cell line (lung-NSCLC tumour line; 0.01 μg/ml): active; activity at 0.001 µg/mL (lung-NSCLC tumour line; [6]): 64%; activity at 0.01 µg/mL (lung-NSCLC tumour line; [6]): 8%; activity at 0.1 µg/mL (lung-NSCLC tumour line; [6]): 0%; minimal effective concentration (L1210 cells; L1210, read-out: LAD 1 (lowest active dose)): 0.032 to 0.064 µg/mL; minimal effective concentration (L1210 cells; L1210, read-out: LAD 2 (lowest active dose)): 0.064 µg/mL; % T/C (L1210; 15 mg/kg IP single dose): tox.; % T/C (L1210; 25, 30 mg/kg IP single dose): tox.; response vs control in vivo at 20 mg/kg (L1210; Mus musculus, L1210, ip, read-out: % T/C): 100%; MAX T/C (P 388 tumour cells; 10 mg/kg): 135%; T/C at the optimal dose (P 388 tumour cells; optimal dose): ~130%; activity at 0.001 µg/mL [2]: 95%; activity at 0.01 µg/mL [2]: 46%; activity at 0.1 µg/mL [2]: 0%; IC50 ([3]; read-out: ID-50 R-1, Table VIII): 0.025 µg/mL
Cn1c(/C=C/CO)c(CO)c2c1C(=O)C=C(N1CC1)C2=O [E.O. 9, 5-Aziridino-3-hydroxymethyl-1-methyl-2-[1H-indole-4,7-dione]prop-β-en-α-ol] | 0% | 0% | 0% | 1.02 µg/mL | 0.512 to 1.02 µg/mL | - | + | + | + | + | + | + | - | + | 38% | 2% | 0.003 µg/mL (≈ 0.0104 µM) | + | + | + | activity against the lung cell line (lung-NSCLC tumour line; 0.01 μg/ml): active; % T/C (L1210; 6, 8, 10 mg/kg IP single dose): tox.; response vs control in vivo at 2 mg/kg (L1210; Mus musculus, L1210, 2 mg/kg IP single dose, read-out: % T/C): 144%; response vs control in vivo at 4 mg/kg (L1210; Mus musculus, L1210, 4 mg/kg IP single dose, read-out: % T/C): 100%; MAX T/C (P 388 tumour cells; 1.5 mg/kg): 106%; activity at 1 µg/mL [2]: 0%; IC50 ([3]; Table VIII, read-out: ID-50 R-1): 0.0034 µg/mL (≈ 0.0118 µM)
